Measured values taken from publication PMC6857076 (Pharmacology Research & Perspectives, 2019).
Where two headings read alike, the source gives them in different places.

Experiments:
[1] = test system: IL-15 cytokine receptor (JAK1/JAK3); assay: Human whole blood, IL-15-induced pSTAT5, lymphocytes; type: cell-based; conditions: for IC50: Homo sapiens, Lymphocyte
Protocol: Blood was warmed to 37°C prior to use.
(§1) Then, 5 µL of PBS or cytokine was added to each well (5 µL/well; final, 10 U/mL EPO, 100 ng/mL G‐CSF, 10 ng/mL GM‐CSF, 5000 U/mL IFNα, 100 ng/mL IFNγ, 50 ng/mL IL‐2, 50 ng/mL IL‐3, 5 ng/mL IL‐4, 50 ng/mL IL‐6, 30 ng/mL IL‐7, 30 ng/mL IL‐10, 30 ng/mL IL‐12, 30 ng/mL IL‐13, 30 ng/mL IL‐15, 50 ng/mL IL‐21, 25 ng/mL IL‐23, 1000 ng/mL IL‐27) and incubated for 15 minutes. Anti‐cell surface antibodies were added 15 minutes prior to cytokine stimulation; anti‐CD14‐Pacific Blue (0.5 µL/well) to GM‐CSF, IFNγ, and TPO‐treated samples; anti‐CD3‐BV650 (0.5 µL/well) plus anti‐CD14‐Pacific Blue (0.5 µL/well) to IL‐6‐treated samples; and anti‐CD19‐BV421 (0.5 µL/well) plus anti‐CD14‐AF488 (0.5 µL/well) to IL‐13‐treated samples.
(§2) One more wash was done with staining buffer and all samples were finally suspended in 150 µL/well of the desired anti‐pSTAT antibodies at 1:150 dilution in staining buffer; anti‐pSTAT1‐AF647 in IFNγ‐treated samples; anti‐pSTAT1‐AF488 and anti‐pSTAT3‐AF647 in IFNα‐, IL‐6‐, and IL‐27‐treated samples; anti‐pSTAT3‐AF647 in G‐CSF‐, IL‐10‐, IL‐21‐, and IL‐23‐treated samples; anti‐pSTAT4‐AF647 in IL‐12‐treated samples; anti‐pSTAT5‐AF647 in EPO‐, GM‐CSF‐, IL‐2‐, IL‐3‐, IL‐7‐, IL‐15‐, and TPO‐treated samples; anti‐pSTAT5‐AF488 and anti‐pSTAT6‐AF647 in IL‐4‐treated samples; and anti‐pSTAT6‐AF647 in IL‐13‐treated samples.
(§3) The lymphocyte population was gated for pSTAT histogram analysis for IFNα‐, IL‐2‐, IL‐3‐, IL‐4‐, IL‐7‐, IL‐10‐, IL‐12‐, IL‐15‐, IL‐21‐, IL‐23‐, and IL‐27‐treated samples; granulocyte population for G‐CSF‐treated samples; CD14^+ cells for GM‐CSF‐, IFNγ‐, and TPO‐treated samples; CD3^+ cells and CD14^+ cells for IL‐6‐treated samples; CD14^+ cells and CD19^+ cells for IL‐13‐treated samples; all events (entire populations) for EPO‐treated cells. Background fluorescence was defined using unstimulated cells and a gate was placed at the foot of the peak to include ~0.5% gated population.
(§4) Histogram statistical analysis was performed using FACSDiva version 8.0.1 (BD Biosciences). Relative fluorescence unit (RFU), which measures the level of pSTAT, was calculated by multiplying the percent positive population and its mean fluorescence. Data from 11 compound concentrations (singlicate at each concentration) were normalized as a percentage of control, as shown in Equation 1:(1) %ofcontrol=100×A−B/C−B
(§5) A, RFU from wells containing compound and cytokine; B, RFU from wells without cytokine (minimum fluorescence); C, RFU from wells containing only cytokine (maximum fluorescence).
(§6) Inhibition curves and IC50 values were determined using Prism software (Version 7, GraphPad).

in vitro = conditions: both, human, pooled human plasma
[2] = test system: IFNα cytokine receptor (JAK1/TYK2); assay: Human whole blood, IFNα-induced pSTAT1, lymphocytes; type: cell-based; conditions: for IC50: Homo sapiens, Lymphocyte
Protocol: Blood was warmed to 37°C prior to use.
as §1, §2, §3, §4, §5, §6

[3] = test system: IL-2 cytokine receptor (JAK1/JAK3); assay: Human whole blood, IL-2-induced pSTAT5, lymphocytes; type: cell-based; conditions: Lymphocyte
Protocol: Blood was warmed to 37°C prior to use.
as §1, §2, §3, §4, §5, §6

[4] = test system: IL-6 cytokine receptor (JAK1/JAK2, JAK1/TYK2); assay: Human whole blood, IL-6-induced pSTAT3, CD3+ cells; type: cell-based
Protocol: Blood was warmed to 37°C prior to use.
(§7) Anti‐cell surface antibodies were added 15 minutes prior to cytokine stimulation; anti‐CD14‐Pacific Blue (0.5 µL/well) to GM‐CSF, IFNγ, and TPO‐treated samples; anti‐CD3‐BV650 (0.5 µL/well) plus anti‐CD14‐Pacific Blue (0.5 µL/well) to IL‐6‐treated samples; and anti‐CD19‐BV421 (0.5 µL/well) plus anti‐CD14‐AF488 (0.5 µL/well) to IL‐13‐treated samples.
as §3, §4, §5, §6

[5] = test system: IL-6 cytokine receptor (JAK1/JAK2, JAK1/TYK2); assay: Human whole blood, IL-6-induced pSTAT1, CD14+ cells; type: cell-based
Protocol: Blood was warmed to 37°C prior to use.
as §7, §3, §4, §5, §6

[6] = test system: IL-21 cytokine receptor (JAK1/JAK3); assay: Human whole blood, IL-21-induced pSTAT3, lymphocytes; type: cell-based; conditions: Lymphocyte
Protocol: Blood was warmed to 37°C prior to use.
as §1, §2, §3, §4, §5, §6

[7] = test system: IL-12 cytokine receptor (JAK2/TYK2); assay: Human whole blood, IL-12-induced pSTAT4, lymphocytes; type: cell-based; conditions: for IC50: Homo sapiens, Lymphocyte
Protocol: Blood was warmed to 37°C prior to use.
as §1, §2, §3, §4, §5, §6

[8] = test system: GM-CSF cytokine receptor (JAK2/JAK2); assay: Human whole blood, GM-CSF-induced pSTAT5, CD14+ cells; type: cell-based
Protocol: Blood was warmed to 37°C prior to use.
as §1, §2, §3, §4, §5, §6

[9] = unbound, Cav × fu; filgotinib 200 mg QD
[10] = test system: IL-27 cytokine receptor (JAK1/JAK2, JAK1/TYK2); assay: Human whole blood, IL-27-induced pSTAT1, lymphocytes; type: cell-based; conditions: Lymphocyte
Protocol: Blood was warmed to 37°C prior to use.
as §7, §3, §4, §5, §6

CRP = conditions: RA; filgotinib 200 mg QD; cited from earlier work
[11] = test system: IL-10 cytokine receptor (JAK1/TYK2); assay: Human whole blood, IL-10-induced pSTAT3, lymphocytes; type: cell-based; conditions: Lymphocyte
Protocol: Blood was warmed to 37°C prior to use.
as §1, §2, §3, §4, §5, §6

[12] = test system: IL-13 cytokine receptor (JAK1/JAK2, JAK1/TYK2); assay: Human whole blood, IL-13-induced pSTAT6, CD19+ cells; type: cell-based
Protocol: Blood was warmed to 37°C prior to use.
as §7, §3, §4, §5, §6

[13] = test system: IL-27 cytokine receptor (JAK1/JAK2, JAK1/TYK2); assay: Human whole blood, IL-27-induced pSTAT3, lymphocytes; type: cell-based; conditions: Lymphocyte
Protocol: Blood was warmed to 37°C prior to use.
as §1, §2, §3, §4, §5, §6

[14] = test system: IL-6 cytokine receptor (JAK1/JAK2, JAK1/TYK2); assay: Human whole blood, IL-6-induced pSTAT1, CD3+ cells; type: cell-based; conditions: for IC50: Homo sapiens
Protocol: Blood was warmed to 37°C prior to use.
as §1, §2, §3, §4, §5, §6

[15] = test system: IL-7 cytokine receptor (JAK1/JAK3); assay: Human whole blood, IL-7-induced pSTAT5, lymphocytes; type: cell-based; conditions: Lymphocyte
Protocol: Blood was warmed to 37°C prior to use.
as §1, §2, §3, §4, §5, §6

[16] = phase 3 RA studies; cited from earlier work
[17] = test system: EPO cytokine receptor (JAK2/JAK2); assay: Human whole blood spiked with CD34+-derived erythroid progenitor cells, EPO-induced pSTAT5; type: cell-based; conditions: for IC50: Erythroid progenitor cell, human whole blood
Protocol: CD34^+ cells were then harvested, washed once with Dulbecco's (D)‐PBS, and suspended at 0.5 x 10^6 cells/mL in human whole blood to be used in the EPO stimulation assay.
Blood was warmed to 37°C prior to use.
Background fluorescence was defined using unstimulated cells and a gate was placed at the foot of the peak to include ~0.5% gated population.
as §4, §5, §6

[18] = test system: TPO cytokine receptor (JAK2/JAK2); assay: Human whole blood, TPO-induced pSTAT5, CD14+ cells; type: cell-based
Protocol: Blood was warmed to 37°C prior to use.
as §1, §2, §3, §4, §5, §6

[19] = human; filgotinib 200 mg QD; cited from earlier work
[20] = test system: IL-4 cytokine receptor (JAK1/JAK3); assay: Human whole blood, IL-4-induced pSTAT6, lymphocytes; type: cell-based; conditions: Lymphocyte
Protocol: Blood was warmed to 37°C prior to use.
as §1, §2, §3, §4, §5, §6

[21] = test system: IFNα cytokine receptor (JAK1/TYK2); assay: Human whole blood, IFNα-induced pSTAT3, lymphocytes; type: cell-based; conditions: Lymphocyte
Protocol: Blood was warmed to 37°C prior to use.
as §1, §2, §3, §4, §5, §6

[22] = test system: IL-3 cytokine receptor (JAK2/JAK2); assay: Human whole blood, IL-3-induced pSTAT5, lymphocytes; type: cell-based
Protocol: Blood was warmed to 37°C prior to use.
as §1, §2, §3, §4, §5, §6

[23] = test system: IFNγ cytokine receptor (JAK1/JAK2); assay: Human whole blood, IFNγ-induced pSTAT1, CD14+ cells; type: cell-based; conditions: for IC50: Homo sapiens
Protocol: Blood was warmed to 37°C prior to use.
as §1, §2, §3, §4, §5, §6

[24] = test system: IL-13 cytokine receptor (JAK1/JAK2, JAK1/TYK2); assay: Human whole blood, IL-13-induced pSTAT6, CD14+ cells; type: cell-based
Protocol: Blood was warmed to 37°C prior to use.
as §7, §3, §4, §5, §6

## O=C(Nc1nc2cccc(-c3ccc(CN4CCS(=O)(=O)CC4)cc3)n2n1)C1CC1 [Filgotinib]
[1]
  LogIC50, IL-15 induced pSTAT5, single experiment: -5.526 log[M]
[1]; read-out: IC50, IL-15, pSTAT5
  IC50: 3380 nM
[1]; read-out: IC50, IL-15 induced pSTAT5, single experiment
  IC50: 2980 nM
[1]; read-out: IC50,u, IL-15, pSTAT5
  IC50: 1360 nM
In vitro
  fraction unbound at 6 h, 1 μmol/L: 0.49
[2]; Figure S1B, Donor 256, Exp 1
  LogIC50, IFNα induced pSTAT1, single experiment: -5.931 log[M]
[2]; read-out: IC50, IFNα induced pSTAT1, single experiment
  IC50: 1170 nM
[2]; read-out: IC50, IFNα, pSTAT1
  IC50: 1320 nM
[2]; read-out: IC50,u, IFNα, pSTAT1
  IC50: 531 nM
[3]; read-out: IC50, IL-2, pSTAT5
  IC50: 2660 nM
[3]; read-out: IC50,u, IL-2, pSTAT5
  IC50: 1070 nM
[4]; read-out: IC50, IL-6, pSTAT3, CD3+ cells
  IC50: 4940 nM
[4]; read-out: IC50,u, IL-6, pSTAT3, CD3+ cells
  IC50: 1980 nM
[5]; read-out: IC50, IL-6, pSTAT1, CD14+ cells
  IC50: 810 nM
[5]; read-out: IC50,u, IL-6, pSTAT1, CD14+ cells
  IC50: 325 nM
[6]; read-out: IC50, IL-21, pSTAT3
  IC50: 3980 nM
[6]; read-out: IC50,u, IL-21, pSTAT3
  IC50: 1600 nM
[7]
  LogIC50, IL-12 induced pSTAT4, single experiment: -5.125 log[M]
[7]; read-out: IC50, IL-12, pSTAT4
  IC50: 8030 nM
[7]; read-out: IC50, IL-12 induced pSTAT4, single experiment
  IC50: 7510 nM
[7]; read-out: IC50,u, IL-12, pSTAT4
  IC50: 3220 nM
[8]; Homo sapiens, read-out: IC50, GM-CSF, pSTAT5
  IC50: > 20000 nM
[8]; human whole blood, four donors, mean (SD), CD14+ cells, JAK2/JAK2, GM-CSF 10 ng/mL
  IC50, GM-CSF, pSTAT5: not measurable
[9]
  Cav,u: 232.0 nM
[10]; read-out: IC50, IL-27, pSTAT1
  IC50: 2110 nM
[10]; read-out: IC50,u, IL-27, pSTAT1
  IC50: 848 nM
CRP
  reduction of CRP levels from baseline to week 12: -14.9 mg/L
[11]; read-out: IC50, IL-10, pSTAT3
  IC50: 2550 nM
[11]; read-out: IC50,u, IL-10, pSTAT3
  IC50: 1020 nM
[12]; read-out: IC50, IL-13, pSTAT6, CD19+ cells
  IC50: 2120 nM
[12]; read-out: IC50,u, IL-13, pSTAT6, CD19+ cells
  IC50: 853 nM
[13]; read-out: IC50, IL-27, pSTAT3
  IC50: 1160 nM
[13]; read-out: IC50,u, IL-27, pSTAT3
  IC50: 468 nM
[14]
  LogIC50, IL-6 induced pSTAT1 (CD3+ cells), single experiment: -6.12 log[M]
[14]; read-out: IC50, IL-6, pSTAT1, CD3+ cells
  IC50: 671 nM
[14]; read-out: IC50, IL-6 induced pSTAT1 (CD3+ cells), single experiment
  IC50: 759 nM
[14]; read-out: IC50,u, IL-6, pSTAT1, CD3+ cells
  IC50: 270 nM
[15]; read-out: IC50, IL-7, pSTAT5
  IC50: 3620 nM
[15]; read-out: IC50,u, IL-7, pSTAT5
  IC50: 1460 nM
[16]
  herpes zoster occurrence: reported
[17]; Figure S1F, Donor 573, Exp 1, one of four experiments, read-out: IC50, EPO induced pSTAT5, single experiment
  IC50: 7580 nM
[17]; four donors, mean (SD), erythroid progenitor cells, JAK2/JAK2, EPO 10 U/mL, read-out: IC50, EPO, pSTAT5
  IC50: 9900 nM
[17]; unbound (IC50/blood:plasma ratio × fu), erythroid progenitor cells, JAK2/JAK2, read-out: IC50,u, EPO, pSTAT5
  IC50: 3970 nM
[17]; Figure S1F, Donor 573, Exp 1
  LogIC50, EPO induced pSTAT5, single experiment: -5.121 log[M]
[18]; Homo sapiens, read-out: IC50, TPO, pSTAT5
  IC50: > 17600 nM
[18]; human whole blood, four donors, mean (SD), CD14+ cells, JAK2/JAK2
  IC50, TPO, pSTAT5: not measurable
[19]
  Cav: 474 nM
[20]; read-out: IC50, IL-4, pSTAT6
  IC50: 3620 nM
[20]; read-out: IC50,u, IL-4, pSTAT6
  IC50: 1460 nM
[21]; read-out: IC50, IFNα, pSTAT3
  IC50: 1060 nM
[21]; read-out: IC50,u, IFNα, pSTAT3
  IC50: 425 nM
[22]; Homo sapiens, Lymphocyte, read-out: IC50, IL-3, pSTAT5
  IC50: > 20000 nM
[22]; human whole blood, four donors, mean (SD), lymphocytes, JAK2/JAK2, IL-3 50 ng/mL
  IC50, IL-3, pSTAT5: not measurable
[23]
  LogIC50, IFNγ induced pSTAT1, single experiment: -5.17 log[M]
[23]; read-out: IC50, IFNγ induced pSTAT1, single experiment
  IC50: 6760 nM
[23]; read-out: IC50, IFNγ, pSTAT1
  IC50: 6950 nM
[23]; read-out: IC50,u, IFNγ, pSTAT1
  IC50: 2790 nM
[24]; read-out: IC50, IL-13, pSTAT6, CD14+ cells
  IC50: 5140 nM
[24]; read-out: IC50,u, IL-13, pSTAT6, CD14+ cells
  IC50: 2060 nM
